Data published in patent US9776972B2, “Pyrazole derivatives as arginine methyltransferase inhibitors and uses thereof” (priority 2013, dated 2017).

target: T1, Human CARM1 (PRMT4) (Homo sapiens, UniProt Q86X55); test: CARM1 Biochemical Assay (3H-SAM Flashplate, peptide substrate); conditions: single experiment or average of multiple experiments
T1 construct: Flag-CARM1-His; made in house; host or cells: HEK 293F cells (BacMam baculovirus)
T1 sequence (Q86X55 1-585 isoform Q86X55-1): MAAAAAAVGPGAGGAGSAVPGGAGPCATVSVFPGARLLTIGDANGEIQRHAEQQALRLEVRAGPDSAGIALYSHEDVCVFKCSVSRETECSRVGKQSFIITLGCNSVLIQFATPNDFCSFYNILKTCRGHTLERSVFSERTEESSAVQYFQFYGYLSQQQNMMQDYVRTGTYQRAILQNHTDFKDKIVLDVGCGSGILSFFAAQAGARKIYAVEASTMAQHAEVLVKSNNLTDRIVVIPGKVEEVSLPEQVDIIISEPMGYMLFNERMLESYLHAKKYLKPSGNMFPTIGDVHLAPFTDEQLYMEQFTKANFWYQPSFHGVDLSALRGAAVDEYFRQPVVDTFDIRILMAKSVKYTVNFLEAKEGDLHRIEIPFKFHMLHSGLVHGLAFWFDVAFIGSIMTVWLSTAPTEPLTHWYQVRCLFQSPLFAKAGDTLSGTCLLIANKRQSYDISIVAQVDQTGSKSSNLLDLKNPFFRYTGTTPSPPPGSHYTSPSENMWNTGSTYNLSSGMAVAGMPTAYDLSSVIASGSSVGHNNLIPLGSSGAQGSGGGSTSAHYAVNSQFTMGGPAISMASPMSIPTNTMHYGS
How it was run: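 Flag-CARM1-His from baculovirus was pre-incubated with compound for 30 min at room temperature in 20 mM Bicine pH 7.6, then reacted with 3H-SAM and a biotinylated H3(16-30) R26-monomethyl peptide.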

Row | SMILES | IC50
1 | CN(CCN)Cc1c[nH]nc1-c1ccc(F)cc1 [Compound 1] | 1.35 µM
2 | CN(CCN)Cc1cnn(C)c1-c1ccc(F)cc1 [Compound 4] | 0.742 µM
3 | CNCCN(C)Cc1cnn(C)c1-c1ccc(F)cc1 [Compound 10] | 1.19 µM
4 | CNCCN(C)Cc1cnn(CC2CCOCC2)c1-c1ccc(F)cc1 [Compound 12] | 4.84 µM
5 | CNCCN(C)Cc1c[nH]nc1-c1cccc(N)c1 [Compound 32] | 1.13 µM
6 | CNCCN(C)Cc1c[nH]nc1-c1ccc(CC#N)cc1 [Compound 34] | 1.37 µM
7 | CNCCN(C)Cc1c[nH]nc1-c1cccc(OC(F)(F)F)c1 [Compound 39] | 2.11 µM
8 | CNCCN(C)Cc1c[nH]nc1-c1cccc(NC(C)=O)c1 [Compound 42] | 2.24 µM
9 | CNCCN(C)Cc1c[nH]nc1-c1cccc(C(C)=O)c1 [Compound 44] | 1.09 µM
10 | CNCCN(C)Cc1c[nH]nc1-c1ccc(-c2ccccc2)cc1 [Compound 47] | 0.0283 µM
11 | CNCCN(C)Cc1c[nH]nc1-c1ccccc1F [Compound 48] | 5.62 µM
12 | CN(CCN)Cc1cn(C2COC2)nc1-c1ccc(F)cc1 [Compound 77] | 4.09 µM
13 | CN(CCN)Cc1c[nH]nc1-c1ccc(N2CCNCC2)cc1 [Compound 82] | 9.01 µM
14 | CN(CCN)Cc1c[nH]nc1-c1ccc(Cl)cc1Cl [Compound 86] | 4.19 µM
15 | COc1ccc(-c2n[nH]cc2CN(C)CCN)c(OC)c1 [Compound 87] | 4.38 µM
16 | Cc1ccc(-c2n[nH]cc2CN(C)CCN)c(C)c1 [Compound 88] | 5.22 µM
17 | Cc1ccc(-c2n[nH]cc2CN(C)CCN)c(Cl)c1 [Compound 90] | 6.92 µM

More lines, now with the values ahead:

Row | IC50 | SMILES
18 | 2.81 µM | CCN(CCNC)Cc1c[nH]nc1-c1ccc(F)cc1 [Compound 9]
19 | 0.247 µM | CC(C)Oc1ccc(-c2n[nH]cc2CN(C)CCN)cc1 [Compound 67]
20 | 3.92 µM | CN(CCN)Cc1n[nH]cc1-c1ccc(F)cc1 [Compound 69]
21 | 3.63 µM | CN(CCN)Cc1c[nH]nc1-c1cccc(C#N)c1 [Compound 70]
22 | 0.715 µM | CN(CCN)Cc1c[nH]nc1-c1cccc(F)c1 [Compound 71]
23 | 7.04 µM | CN(CCN)Cc1c[nH]nc1-c1ccccc1F [Compound 72]
24 | 2.9 µM | CN(CCN)Cc1c[nH]nc1-c1ccccc1 [Compound 73]
25 | 3.53 µM | CN(CCN)Cc1c[nH]nc1-c1ccc(C(C)(C)C)cc1 [Compound 74]
26 | 1.63 µM | CN(CCN)Cc1cnn(C2COC2)c1-c1ccc(F)cc1 [Compound 81]
27 | 1.13 µM | CN(CCN)Cc1nn(C)cc1-c1ccc(C#N)cc1 [Compound 83]
28 | 5.98 µM | CN(CCN)Cc1c[nH]nc1-c1ccc(F)cc1Cl [Compound 89]
29 | 0.69 µM | CN(CCN)Cc1c[nH]nc1-c1ccc(C(F)(F)F)cc1 [Compound 92]
30 | 1.83 µM | CN(CCN)Cc1c[nH]nc1-c1ccc(OC(F)(F)F)cc1 [Compound 93]
31 | 0.873 µM | CN(CCN)Cc1c[nH]nc1-c1ccc(OC(F)F)cc1 [Compound 94]
32 | 0.392 µM | CN(CCN)Cc1c[nH]nc1-c1ccc(Cl)cc1 [Compound 95]
